Measurements from patent US12486273B2 (Hoffmann-La Roche Inc., priority 2019, dated 2025).
pIC50: −log10 of the molar value.

Assays:
Format in all cases: cell-based
hERG channel = hERG channel (Homo sapiens (Human), UniProt Q12809); assay: hERG channel inhibition assay; settings: patch-clamp; for pIC50: CHO hERG cells; for IC20: human, CHO cells stably expressing hERG
Method: hERG Channel Inhibition Assay
The hERG K^+ channels were cloned in humans and stably expressed in a CHO (Chinese hamster ovary) cell line. CHOhERG cells were used for patch-clamp (voltage-clamp, whole-cell) experiments. Cells were stimulated by a voltage pattern to activate hERG channels and conduct IKhERG Currents (rapid delayed outward rectifier potassium current of the hERG channel). After the cells were stabilized for a few minutes, the amplitude and kinetics of IKhERG were recorded at a stimulation frequency of 0.1 Hz (6 bpm). Thereafter, the test compound was added to the preparation at increasing concentrations. For each concentration, an attempt was made to reach a steady-state effect, usually, this was achieved within 3-10 min at which time the next highest concentration was applied. The amplitude and kinetics of IKhERG are recorded in each concentration of the drug which were compared to the control values (taken as 100%). (references: Redfern WS, Carlsson L, Davis A S, Lynch W G, MacKenzie I, Palethorpe S, Siegl P K, Strang I, Sullivan A T, Wallis R, Camm A J, Hammond T G. 2003; Relationships between preclinical cardiac electrophysiology, clinical QT interval prolongation and torsade de pointes for a broad range of drugs: evidence for a provisional safety margin in drug development. Cardiovasc. Res. 58:32-45, Sanguinetti M C, Tristani-Firouzi M. 2006; hERG potassium channels and cardiac arrhythmia. Nature 440:463-469, Webster R, Leishman D, Walker D. 2002; Towards a drug concentration effect relationship for QT prolongation and torsades de pointes. Curr. Opin. Drug Discov. Devel. 5:116-26).

human TLR7 = human TLR7 (Homo sapiens (Human), UniProt Q9NYK1); assay: HEK293-Blue-hTLR-7 cells assay; settings: HEK293-Blue-hTLR7 cells, R848 stimulation, 20 hrs, SEAP reporter; read-out: HEK/hTLR7 IC50
Summary of the method: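 HEK293-Blue cells stably expressing hTLR7 with NF-κB/AP-1-driven SEAP reporter, incubated 20 h at 37 °C with serially diluted compound (1% DMSO) plus R848 agonist (10 μL of 20 μM stock). Supernatant SEAP measured with QUANTI-Blue after 2 h at 37 °C, absorbance 620-655 nm; antagonism as reduced reporter.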

human TLR9 = human TLR9 (Homo sapiens (Human), UniProt Q9NR96); assay: HEK293-Blue-hTLR-9 cells assay; settings: HEK293-Blue-hTLR9 cells, ODN2006 stimulation, 20 hrs, SEAP reporter; read-out: HEK/hTLR9 IC50
Sequence of human TLR9 (Q9NR96 26-1032): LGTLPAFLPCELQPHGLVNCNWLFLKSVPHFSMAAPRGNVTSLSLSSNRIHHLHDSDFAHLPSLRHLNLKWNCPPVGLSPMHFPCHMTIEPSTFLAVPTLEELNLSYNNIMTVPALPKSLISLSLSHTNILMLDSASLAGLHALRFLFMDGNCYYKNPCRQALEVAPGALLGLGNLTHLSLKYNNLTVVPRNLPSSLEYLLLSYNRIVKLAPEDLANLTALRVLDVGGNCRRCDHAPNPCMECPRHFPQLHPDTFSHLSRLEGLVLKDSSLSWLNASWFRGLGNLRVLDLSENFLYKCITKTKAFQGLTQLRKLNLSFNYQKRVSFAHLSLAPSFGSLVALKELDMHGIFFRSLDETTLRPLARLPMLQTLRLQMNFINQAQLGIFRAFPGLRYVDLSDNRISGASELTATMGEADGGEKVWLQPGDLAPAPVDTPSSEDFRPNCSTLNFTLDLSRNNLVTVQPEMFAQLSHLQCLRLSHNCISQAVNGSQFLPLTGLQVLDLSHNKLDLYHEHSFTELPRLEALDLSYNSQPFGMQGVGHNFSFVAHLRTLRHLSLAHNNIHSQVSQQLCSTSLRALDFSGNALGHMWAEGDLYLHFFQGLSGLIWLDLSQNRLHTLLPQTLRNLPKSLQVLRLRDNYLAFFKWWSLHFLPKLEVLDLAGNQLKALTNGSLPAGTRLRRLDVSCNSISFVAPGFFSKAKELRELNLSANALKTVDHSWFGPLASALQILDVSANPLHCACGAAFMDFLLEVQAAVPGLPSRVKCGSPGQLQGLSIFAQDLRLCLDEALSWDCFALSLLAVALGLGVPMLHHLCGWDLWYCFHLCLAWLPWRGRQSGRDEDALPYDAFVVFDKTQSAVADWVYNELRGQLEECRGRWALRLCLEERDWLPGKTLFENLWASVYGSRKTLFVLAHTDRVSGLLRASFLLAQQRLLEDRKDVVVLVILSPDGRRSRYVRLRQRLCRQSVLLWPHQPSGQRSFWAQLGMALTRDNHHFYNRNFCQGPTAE

Sequence of human TLR7 (Q9NYK1 27-1049): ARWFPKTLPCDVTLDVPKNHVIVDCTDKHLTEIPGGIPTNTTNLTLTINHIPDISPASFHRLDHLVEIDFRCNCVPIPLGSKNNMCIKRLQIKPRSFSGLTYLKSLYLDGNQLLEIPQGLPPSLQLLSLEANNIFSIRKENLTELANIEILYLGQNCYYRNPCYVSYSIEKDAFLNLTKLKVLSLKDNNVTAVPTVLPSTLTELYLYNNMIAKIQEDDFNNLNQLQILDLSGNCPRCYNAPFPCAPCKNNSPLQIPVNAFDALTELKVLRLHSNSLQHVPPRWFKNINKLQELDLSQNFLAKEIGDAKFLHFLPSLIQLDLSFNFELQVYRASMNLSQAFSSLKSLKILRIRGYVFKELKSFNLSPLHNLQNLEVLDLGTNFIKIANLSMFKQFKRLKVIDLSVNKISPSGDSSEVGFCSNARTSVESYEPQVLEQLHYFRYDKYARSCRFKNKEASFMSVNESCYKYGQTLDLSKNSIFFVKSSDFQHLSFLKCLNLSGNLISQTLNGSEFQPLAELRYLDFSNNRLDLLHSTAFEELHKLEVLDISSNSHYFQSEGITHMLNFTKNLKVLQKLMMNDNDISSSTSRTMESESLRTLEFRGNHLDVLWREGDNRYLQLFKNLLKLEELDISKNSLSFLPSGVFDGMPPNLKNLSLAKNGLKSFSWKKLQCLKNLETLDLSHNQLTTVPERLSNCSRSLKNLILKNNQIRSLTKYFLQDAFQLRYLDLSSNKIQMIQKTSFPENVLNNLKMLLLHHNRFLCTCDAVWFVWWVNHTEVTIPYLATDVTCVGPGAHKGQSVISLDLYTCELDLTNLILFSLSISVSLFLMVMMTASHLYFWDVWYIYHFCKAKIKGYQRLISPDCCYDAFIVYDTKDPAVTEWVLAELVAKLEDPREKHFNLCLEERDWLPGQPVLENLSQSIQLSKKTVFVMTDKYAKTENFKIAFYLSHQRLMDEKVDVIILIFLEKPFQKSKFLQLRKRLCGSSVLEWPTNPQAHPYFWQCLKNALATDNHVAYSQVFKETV
Sequence of hERG channel (Q12809 whole entry): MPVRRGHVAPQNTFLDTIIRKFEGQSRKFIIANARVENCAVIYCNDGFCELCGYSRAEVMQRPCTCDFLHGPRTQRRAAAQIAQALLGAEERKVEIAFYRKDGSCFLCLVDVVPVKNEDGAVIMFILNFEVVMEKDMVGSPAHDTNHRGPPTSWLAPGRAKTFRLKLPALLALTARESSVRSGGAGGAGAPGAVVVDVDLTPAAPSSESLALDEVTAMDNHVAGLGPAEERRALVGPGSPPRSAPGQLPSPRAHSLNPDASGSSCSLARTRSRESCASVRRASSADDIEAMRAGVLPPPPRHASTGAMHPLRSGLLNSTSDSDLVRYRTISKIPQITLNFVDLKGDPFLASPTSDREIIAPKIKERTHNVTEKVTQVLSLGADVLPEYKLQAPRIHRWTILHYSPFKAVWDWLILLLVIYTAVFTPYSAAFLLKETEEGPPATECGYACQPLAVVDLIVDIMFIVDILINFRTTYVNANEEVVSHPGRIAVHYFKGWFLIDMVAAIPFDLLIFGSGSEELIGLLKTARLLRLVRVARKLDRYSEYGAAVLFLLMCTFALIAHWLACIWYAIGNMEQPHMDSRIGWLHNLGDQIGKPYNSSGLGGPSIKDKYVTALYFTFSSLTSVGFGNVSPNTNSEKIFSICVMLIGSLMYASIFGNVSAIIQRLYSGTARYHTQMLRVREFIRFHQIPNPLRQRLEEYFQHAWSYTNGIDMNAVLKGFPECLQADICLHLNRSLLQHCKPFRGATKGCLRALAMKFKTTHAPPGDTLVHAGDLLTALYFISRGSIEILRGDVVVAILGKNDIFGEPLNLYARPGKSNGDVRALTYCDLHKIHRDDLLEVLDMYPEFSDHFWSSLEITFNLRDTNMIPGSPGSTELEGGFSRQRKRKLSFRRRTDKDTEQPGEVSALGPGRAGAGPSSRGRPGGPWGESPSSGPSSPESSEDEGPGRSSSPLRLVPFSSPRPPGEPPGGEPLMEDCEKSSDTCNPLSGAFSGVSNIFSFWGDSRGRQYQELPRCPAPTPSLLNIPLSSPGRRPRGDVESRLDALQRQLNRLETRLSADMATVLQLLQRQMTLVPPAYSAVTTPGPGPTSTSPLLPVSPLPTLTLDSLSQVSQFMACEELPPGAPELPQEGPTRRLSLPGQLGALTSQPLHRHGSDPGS

Compound | pIC50 (human TLR7) | pIC50 (human TLR9) | pIC50 (hERG channel) | IC20 (hERG channel) [nM]
[2H]c1ccc2c(N3C[C@@H]4C[C@H](N5CCC(N(C)C)CC5)CN4[C@H](C)C3)ccc(C#N)c2n1 [Example 20, 5-[(4R,7S,8aS)-7-[4-(dimethylamino)-1-piperidyl]-4-methyl-3,4,6,7,8,8a-hexahydro-1H-pyrrolo[1,2-a]pyrazin-2-yl]-2-deuterio-quinoline-8-carbonitrile] | 7.72 | 6.83 | < 4.70 | > 10000
[2H]c1ccc2c(N3C[C@@H]4C[C@H](N5CCNCC5)CN4[C@H](C)C3)ccc(C#N)c2n1 [Example 15, 5-[(4R,7S,8aS)-4-methyl-7-piperazin-1-yl-3,4,6,7,8,8a-hexahydro-1H-pyrrolo[1,2-a]pyrazin-2-yl]-2-deuterio-quinoline-8-carbonitrile] | 7.89 | 6.92 | < 4.70 | > 10000

Further lines, with some results ahead:

pIC50 (human TLR7) | pIC50 (human TLR9) | Compound | pIC50 (hERG channel) | IC20 (hERG channel) [nM]
7.41 | 6.94 | C[C@@H]1CN(c2ccc(C#N)c3ncccc23)C[C@@H]2C[C@@H](Nc3ccc4c(n3)CNCC4)CN21 [Example 3, 5-[(4R,7R,8aS)-4-methyl-7-(5,6,7,8-tetrahydro-1,7-naphthyridin-2-ylamino)-3,4,6,7,8,8a-hexahydro-1H-pyrrolo[1,2-a]pyrazin-2-yl]quinoline-8-carbonitrile] | < 4.70 | > 10000
7.39 | 7.05 | C[C@@H]1CN(c2ccc(C#N)c3ncccc23)C[C@@H]2C[C@@H](Nc3cc4c(cn3)CCNC4)CN21 [Example 2, 5-[(4R,7R,8aS)-4-methyl-7-(5,6,7,8-tetrahydro-2,6-naphthyridin-3-ylamino)-3,4,6,7,8,8a-hexahydro-1H-pyrrolo[1,2-a]pyrazin-2-yl]quinoline-8-carbonitrile] | < 4.70 | > 10000
7.79 | 7.36 | C[C@@H]1CN(c2ccc(C#N)c3ncccc23)C[C@@H]2C[C@@H](Nc3ccc4c(n3)CCNC4)CN21 [Example 1, 5-[(4R,7R,8aS)-4-methyl-7-(5,6,7,8-tetrahydro-1,6-naphthyridin-2-ylamino)-3,4,6,7,8,8a-hexahydro-1H-pyrrolo[1,2-a]pyrazin-2-yl]quinoline-8-carbonitrile] | < 4.70 | > 10000
